Where two headings read alike, the source gives them in different places.
Assays:
[1] = Pharmacokinetics study of (+)/(−) epicatechin and their trigonelline (1:1) co-crystals, oral (Example 3); type: in vivo; settings: rat, 10 mg/kg, male SD rats, 10 mpk equivalent of parent drug, vehicle CMC and Tween 80, plasma; for half-life: read-out: T½ elimination (converted)
Description: (§1) Co-crystals of the present invention were administered orally (PO) at a dose of 10 mpk equivalent of parent drugs in male SD rats. The PK results of the compound were compared with exposure of parent drugs. […] Blood samples were centrifuged at 10,000 rpm for 5 min. at 4° C. to obtain the plasma, which were aspirated into separate labelled tubes and stored at −80° C. Extraction solvent was added to plasma, was vortexed and shaken on shaker for 10 minutes, centrifuged at 10,000 rpm for 10 minutes at 4° C. Supernatant was kept for analysis.

[2] = Pharmacokinetics study of (+) epicatechin (SPR590) and its trigonelline (1:1) co-crystal (SPR515), oral (Example 4); type: in vivo; settings: rat, plasma, male SD rats, CMC and Tween 80
Description: as §1, with “mpk” for “mpk equivalent of parent drugs”, “rats for the control (+) epicatechin group and 10 mpk of SPR 515 which is equivalent to 6.25 mpk of epicatechin.” for “rats.”

[3] = average; male SD rats, PO, 14 mpk of Compound 109 (equivalent to 10 mpk epicatechin), vehicle 0.5% CMC
Description: A pharmacokinetics study was carried out to evaluate the plasma exposure of D-proline co-crystals of (+) epicatechin (Compound 109). Co-crystals were administered orally (PO) at a dose of 14 mpk of Compound 109, which is equivalent to 10 mpk of epicatechin. The dosing vehicle that was used in this study was 0.5% CMC. After oral dosing, blood was collected by serial bleeding at different time points in heparinised tubes. Blood samples were centrifuged at 10,000 rpm for 5 min. at 4° C. to obtain the plasma, which were aspirated into separate labelled tubes and stored at −80° C. Extraction solvent was added to plasma, was vortexed and shaken on a shaker for 10 minutes, and then centrifuged at 10,000 rpm for 10 minutes at 4° C. Supernatant was kept for analysis. Acetonitrile and plasma calibration curves were generated and percentage of drug recovery from plasma determined. Quantitative analysis was done by liquid chromatography tandem mass spectrometer (API3000 LC-MS/MS). PK parameters were calculated using Graph Pad PRISM version 5.04 and the results are depicted in Table 7.

[4] = PO, dose 10 mpk (MW adjusted (+)-epicatechin dose: SPR590 10 mpk, SPR515 6.25 mpk)

Row | Structure (SMILES) | AUC [1] | Cmax [1] | Tmax [1] | half-life [1] | AUC [2, 4] | Cmax [2, 4] | concentration at 0.16 h ([2]; time point 0.16 h, PO 10 mpk (SPR515: equivalent to 6.25 mpk epicatechin), read-out: Plasma level) | concentration at 0.5 h ([2]; time point 0.5 h, PO 10 mpk (SPR515: equivalent to 6.25 mpk epicatechin), read-out: Plasma level) | concentration at 1 h ([2]; time point 1 h, PO 10 mpk (SPR515: equivalent to 6.25 mpk epicatechin), read-out: Plasma level) | concentration at 2 h ([2]; time point 2 h, PO 10 mpk (SPR515: equivalent to 6.25 mpk epicatechin), read-out: Plasma level) | concentration at 4 h ([2]; time point 4 h, PO 10 mpk (SPR515: equivalent to 6.25 mpk epicatechin), read-out: Plasma level) | concentration at 8 h ([2]; time point 8 h, PO 10 mpk (SPR515: equivalent to 6.25 mpk epicatechin), read-out: Plasma level) | AUC [3] | Cmax [3] | Tmax [3] | T½ elimination [3]
1 | Oc1cc(O)c2c(c1)O[C@H](c1ccc(O)c(O)c1)[C@H](O)C2 [Compound 107, (−) epicatechin] | 678 nM·h | 0.386 µM | 18 min | 113 min |  |  |  |  |  |  |  |  |  |  |  | 
2 | Oc1cc(O)c2c(c1)O[C@@H](c1ccc(O)c(O)c1)[C@@H](O)C2 [Compound 108, (+) epicatechin] | 579 nM·h | 0.333 µM | 60 min | 49.8 min | 678 nM·h | 0.386 µM | 0.236 µM | 0.338 µM | 0.262 µM | 0.152 µM | 0.0241 µM | 0 µM |  |  |  | 
3 | O=C(O)[C@H]1CCCN1.Oc1cc(O)c2c(c1)O[C@@H](c1ccc(O)c(O)c1)[C@@H](O)C2 [Compound 109, (+) Epicatechin_(D)-Proline (1:1) Co-Crystals] |  |  |  |  |  |  |  |  |  |  |  |  | 1905.33 nM·h | 0.778 µM | 45 min | 103 min

Reference: patent US20210380535A1, “CO-CRYSTALS COMPRISING EPICATECHIN AND A CARBOXY-N-HETEROCYCLIC CO-CRYSTAL FORMER” (Epirium Bio Inc., priority 2018, published 2021)
